“Also recorded” adds a separate entry of the source. Read-outs that look alike come from different tables or passages of the source.
Columns and labels:
Veillonella = experiment: Vaginal microbiota by quantitative real-time PCR; type: in vivo; conditions: average; for Target DNA/genomic or vaginal DNA, Veillonella: visit V4, patients maintaining recovery
Protocol: (§1) During the clinical trial, described in Example 12, samples of vaginal cleansing were collected and the composition of vaginal microbiota was determined by means of the quantitative real-time PCR.
(§2) With the real-time PCR the DNA samples are amplified with gender- and/or species-specific primers whose target is the 16S rRNA bacterial gene or the 16S-23 S rRNA region.
(§3) In particular, specific probes were used for the Lactobacillus gender, for Gardnerella vaginalis, for Atopobium, for Prevotella and for Veillonella, since they represent the main bacterial groups suffering from modifications in case of bacterial vaginosis.
(§4) Table 28 reports the values of real-time PCR relating to bacterial genders and species quantified in vaginal cleansings of women belonging to the different treatment groups, expressed as total target DNA ng/genomic DNA μg, for microbial species tested for each group at the visit V3 if compared to the visit V1.
(§5) The composition of vaginal microbiota was determined by means of the quantitative real-time PCR technique of patients maintaining their recovery at the visit V4, 30-40 days after the end of the therapy, and the DNA samples amplified with gender- and/or species-specific primers were evaluated by means of the real-time PCR technique.
(§6) Table 29 reports the values of real-time PCR relating to target bacterial genders and species quantified in vaginal rinses of women belonging to the different treatment groups, expressed as total target DNA ng/genomic DNA μg, for microbial species tested for each group at the visit V4 when compared to the values observed at the visit V1 of all treated patients.

Prevotella = experiment: Vaginal microbiota by quantitative real-time PCR; type: in vivo; conditions: for Target DNA/genomic vaginal DNA, Prevotella / Target DNA/genomic or vaginal DNA, Prevotella: average; for Target DNA/genomic or vaginal DNA, Prevotella: visit V4, patients maintaining recovery
Protocol: as §1, §2, §3, §4, §5, §6

Atopobium = experiment: Vaginal microbiota by quantitative real-time PCR; type: in vivo; conditions: for Target DNA/genomic vaginal DNA, Atopobium / Target DNA/genomic or vaginal DNA, Atopobium: average; for Target DNA/genomic or vaginal DNA, Atopobium: visit V4, patients maintaining recovery
Protocol: as §1, §2, §3, §4, §5, §6

Gardnerella vaginalis [1] = experiment: Vaginal microbiota by quantitative real-time PCR; type: in vivo; conditions: for Target DNA/genomic vaginal DNA, Gardnerella vaginalis / Target DNA/genomic or vaginal DNA, Gardnerella vaginalis: average; for Target DNA/genomic or vaginal DNA, Gardnerella vaginalis: visit V4, patients maintaining recovery
Protocol: as §1, §2, §3, §4, §5, §6

Lactobacillus = experiment: Vaginal microbiota by quantitative real-time PCR; type: in vivo; conditions: for Target DNA/genomic vaginal DNA, Lactobacillus / Target DNA/genomic or vaginal DNA, Lactobacillus: average; for Target DNA/genomic or vaginal DNA, Lactobacillus: visit V4, patients maintaining recovery; for increase of Lactobacilli concentration: visit V4
Protocol: as §1, §2, §3, §4, §5, §6

Gardnerella vaginalis [2] = type: in vivo, New Zealand rabbits (Oryctolagus cunicolis)
Protocol: The efficacy of vaginal compositions in rifaximin containing tablets and ovules was evaluated in an animal model of bacterial infection persistent in the rabbit.
The vaginal infection model was induced by inoculation of Gardnerella vaginalis isolated from women affected by bacterial vaginosis. The bacterial strains were grown in agar of bovine red blood cells at 37° C. by adding a DIFCO-C supplement and were kept under controlled atmosphere 5% CO2 for 24-48 hours.
For developing the model of animal infection, New Zealand rabbits (Oryctolagus cunicolis) having a weight comprised between 2 and 3 kg were used.
Before the infection, the animals had been treated with 1 ml 10% enrofloxacin solution for reducing the endogenous Lactobacilli and facilitating the growth of pathogenic agent. The infection was induced by inoculating in the animals vagina 1 ml of sterile saline solution containing 106-7 UFC (Unit Forming Colony) of Gardnerella vaginalis by using a 22-24G Teflon catheter. The presence of G. vaginalis in the animals was verified before the inoculation and 24 and 48 hours after the inoculation.
The animals were inoculated twice and thrice at time intervals of three days. After 14 days the last inoculation all animals were treated with 1 ml 10% enrofloxacin solution to verify the model sensitivity to antibiotics. The treatment healed the infection, thus confirming that the model can be used to evaluate the efficacy of antibiotics administered via the intravaginal route.
The presence of G. vaginalis was verified by vaginal buffer 1, 2, 4, 10 and 14 days after the last inoculation, putting the vaginal buffers in agar plates of bovine red blood cells with DIFCO-C supplement and growing them at 37° C. for 48 hours. The presence of G. vaginalis was verified by means of microscope (1000×) morphological identification and with Gram staining.
Three and seven days after the end of the rifaximin treatment, the presence of Gardnerella vaginalis was evaluated by means of vaginal buffers as previously described.
The vaginal buffers were considered positive if 10 or more colonies were counted, and the presence of malodorous vaginal discharges was the clinical sign of the occurred infection.

[3] = Phase II clinical trial, adverse events; type: in vivo, human
Source text: The adverse events reported by patients were registered, and the most frequent one was the rifaximin related vulvovaginal itching and burning.
In Table 23 it is reported the percentage of patients belonging to different treatment groups who reported adverse events both systemic and local, vulvovaginal itching and burning related to rifaximin.

[4] = visit V1 (before therapy), Group A: 1 tablet 100 mg × 5 days
[5] = visit V1 (before therapy), Group B: 1 tablet 25 mg × 5 days
[6] = visit V1 (before therapy), Group C: 1 tablet 100 mg × 2 days
[7] = visit V3, Group A: 1 tablet 100 mg × 5 days
[8] = visit V3, Group B: 1 tablet 25 mg × 5 days
[9] = visit V3, Group C: 1 tablet 100 mg × 2 days
[10] = Group A: 1 tablet 100 mg × 5 days
[11] = Group B: 1 tablet 25 mg × 5 days
[12] = Group C: 1 tablet 100 mg × 2 days
[13] = all groups treated with rifaximin, compared to placebo

Structure (SMILES): CO[C@H]1/C=C/O[C@@]2(C)Oc3c(C)c(O)c4c(O)c(c5c(nc6cc(C)ccn65)c4c3C2=O)NC(=O)/C(C)=C\C=C\[C@H](C)[C@H](O)[C@@H](C)[C@@H](O)[C@@H](C)[C@H](OC(C)=O)[C@@H]1C [Rifaximin]
- Target DNA/genomic vaginal DNA, Veillonella (Veillonella; [4]): 0.04128 ng/µg
- Target DNA/genomic vaginal DNA, Veillonella (Veillonella; [5]): 0.03492 ng/µg
- Target DNA/genomic vaginal DNA, Veillonella (Veillonella; [6]): 0.2214 ng/µg
- Target DNA/genomic vaginal DNA, Veillonella (Veillonella; [7]): 0.007807 ng/µg
- Target DNA/genomic vaginal DNA, Veillonella (Veillonella; [8]): 0.01761 ng/µg
- Target DNA/genomic vaginal DNA, Veillonella (Veillonella; [9]): 0.005642 ng/µg
- Target DNA/genomic or vaginal DNA, Veillonella (Veillonella; [10]): 0 ng/µg
- Target DNA/genomic or vaginal DNA, Veillonella (Veillonella; [11]): 0 ng/µg
- Target DNA/genomic or vaginal DNA, Veillonella (Veillonella; [12]): 0.2748 ng/µg
- change of Prevotella concentration by real-time PCR (Prevotella; [13]): reduction
- Target DNA/genomic vaginal DNA, Prevotella (Prevotella; [4]): 18.8 ng/µg
- Target DNA/genomic vaginal DNA, Prevotella (Prevotella; [5]): 18.47 ng/µg
- Target DNA/genomic vaginal DNA, Prevotella (Prevotella; [6]): 17.91 ng/µg
- Target DNA/genomic vaginal DNA, Prevotella (Prevotella; [7]): 12.2 ng/µg
- Target DNA/genomic vaginal DNA, Prevotella (Prevotella; [8]): 3.712 ng/µg
- Target DNA/genomic vaginal DNA, Prevotella (Prevotella; [9]): 7.248 ng/µg
- Target DNA/genomic or vaginal DNA, Prevotella (Prevotella; [10]): 0.04296 ng/µg
- Target DNA/genomic or vaginal DNA, Prevotella (Prevotella; [11]): 2.345 ng/µg
- Target DNA/genomic or vaginal DNA, Prevotella (Prevotella; [12]): 54 ng/µg
- change of Atopopium concentration by real-time PCR (Atopobium; [13]): reduction
- Target DNA/genomic vaginal DNA, Atopobium (Atopobium; [4]): 93.07 ng/µg
- Target DNA/genomic vaginal DNA, Atopobium (Atopobium; [5]): 108.2 ng/µg
- Target DNA/genomic vaginal DNA, Atopobium (Atopobium; [6]): 170.4 ng/µg
- Target DNA/genomic vaginal DNA, Atopobium (Atopobium; [7]): 61.46 ng/µg
- Target DNA/genomic vaginal DNA, Atopobium (Atopobium; [8]): 48.8 ng/µg
- Target DNA/genomic vaginal DNA, Atopobium (Atopobium; [9]): 59.99 ng/µg
- Target DNA/genomic or vaginal DNA, Atopobium (Atopobium; [10]): 5.348 ng/µg
- Target DNA/genomic or vaginal DNA, Atopobium (Atopobium; [11]): 28.25 ng/µg
- Target DNA/genomic or vaginal DNA, Atopobium (Atopobium; [12]): 139.9 ng/µg
- change of Gardnerella vaginalis concentration by real-time PCR (Gardnerella vaginalis [1]; [13]): reduction
- Target DNA/genomic vaginal DNA, Gardnerella vaginalis (Gardnerella vaginalis [1]; [4]): 34.92 ng/µg
- Target DNA/genomic vaginal DNA, Gardnerella vaginalis (Gardnerella vaginalis [1]; [5]): 119.4 ng/µg
- Target DNA/genomic vaginal DNA, Gardnerella vaginalis (Gardnerella vaginalis [1]; [6]): 66.74 ng/µg
- Target DNA/genomic vaginal DNA, Gardnerella vaginalis (Gardnerella vaginalis [1]; [7]): 23.56 ng/µg
- Target DNA/genomic vaginal DNA, Gardnerella vaginalis (Gardnerella vaginalis [1]; [8]): 66.26 ng/µg
- Target DNA/genomic vaginal DNA, Gardnerella vaginalis (Gardnerella vaginalis [1]; [9]): 29.44 ng/µg
- Target DNA/genomic or vaginal DNA, Gardnerella vaginalis (Gardnerella vaginalis [1]; [10]): 3.067 ng/µg
- Target DNA/genomic or vaginal DNA, Gardnerella vaginalis (Gardnerella vaginalis [1]; [11]): 17.57 ng/µg
- Target DNA/genomic or vaginal DNA, Gardnerella vaginalis (Gardnerella vaginalis [1]; [12]): 75.09 ng/µg
- change of Lactobacilli by real-time PCR (Lactobacillus; all groups treated with rifaximin): Lactobacilli increase
- Target DNA/genomic vaginal DNA, Lactobacillus (Lactobacillus; [4]): 16.83 ng/µg
- Target DNA/genomic vaginal DNA, Lactobacillus (Lactobacillus; [5]): 10.06 ng/µg
- Target DNA/genomic vaginal DNA, Lactobacillus (Lactobacillus; [6]): 12.66 ng/µg
- Target DNA/genomic vaginal DNA, Lactobacillus (Lactobacillus; [7]): 20.09 ng/µg
- Target DNA/genomic vaginal DNA, Lactobacillus (Lactobacillus; [8]): 33.78 ng/µg
- Target DNA/genomic vaginal DNA, Lactobacillus (Lactobacillus; [9]): 25.36 ng/µg
- Target DNA/genomic or vaginal DNA, Lactobacillus (Lactobacillus; [10]): 21.3 ng/µg
- Target DNA/genomic or vaginal DNA, Lactobacillus (Lactobacillus; [11]): 39.57 ng/µg
- Target DNA/genomic or vaginal DNA, Lactobacillus (Lactobacillus; [12]): 8.959 ng/µg
- increase of Lactobacilli concentration (Lactobacillus; group A: tablet 100 mg rifaximin for five days): twentyfold
- increase of Lactobacilli concentration (Lactobacillus; group B: tablet 25 mg rifaximin for five days): fortyfold
- increase of Lactobacilli concentration (Lactobacillus; group C: tablet 100 mg rifaximin for two days): eightfold
- adverse event during treatment (Gardnerella vaginalis [2]; rabbit, in vivo): No adverse event was observed
- eradication of the infection (presence of Gardnerella vaginalis) (Gardnerella vaginalis [2]; seven days after the end of the treatment, tablets and ovules, 1.5 to 12.5 mg): negative for 7 days after the end of the treatment
- Eradication (Gardnerella vaginalis [2]; vaginal ovules, rifaximin dose 1.5 mg, after 3 days): 100%
- Eradication (Gardnerella vaginalis [2]; vaginal ovules, rifaximin dose 1.5 mg, after 7 days): 100%
- Eradication (Gardnerella vaginalis [2]; vaginal ovules, rifaximin dose 3 mg, after 3 days): 88%
- Eradication (Gardnerella vaginalis [2]; vaginal ovules, rifaximin dose 3 mg, after 7 days): 100%
- Eradication (Gardnerella vaginalis [2]; vaginal ovules, rifaximin dose 6 mg, after 3 days): 88%
- Eradication (Gardnerella vaginalis [2]; vaginal ovules, rifaximin dose 6 mg, after 7 days): 100%
- Eradication (Gardnerella vaginalis [2]; vaginal ovules, rifaximin dose 12.5 mg, after 3 days): 100%
- Eradication (Gardnerella vaginalis [2]; vaginal ovules, rifaximin dose 12.5 mg, after 7 days): 100%
- Eradication (Gardnerella vaginalis [2]; vaginal tablets, rifaximin dose 1.5 mg, after 3 days): 88%
- Eradication (Gardnerella vaginalis [2]; vaginal tablets, rifaximin dose 1.5 mg, after 7 days): 100%
- Eradication (Gardnerella vaginalis [2]; vaginal tablets, rifaximin dose 3 mg, after 3 days): 63%
- Eradication (Gardnerella vaginalis [2]; vaginal tablets, rifaximin dose 3 mg, after 7 days): 100%
- Eradication (Gardnerella vaginalis [2]; vaginal tablets, rifaximin dose 6 mg, after 3 days): 88%
- Eradication (Gardnerella vaginalis [2]; vaginal tablets, rifaximin dose 6 mg, after 7 days): 100%
- Eradication (Gardnerella vaginalis [2]; vaginal tablets, rifaximin dose 12.5 mg, after 3 days): 100%
- Eradication (Gardnerella vaginalis [2]; vaginal tablets, rifaximin dose 12.5 mg, after 7 days): 100%
- Patients with adverse events [3, 10]: 35.7%
- Patients with vulvovaginal burning [3, 10]: 3.6%
- Patients with vulvovaginal itching [3, 10]: 25.0%
- Patients with adverse events [3, 11]: 34.6%
- Patients with vulvovaginal burning [3, 11]: 19.2%
- Patients with vulvovaginal itching [3, 11]: 19.2%
- Patients with adverse events [3, 12]: 7.7%
- Patients with vulvovaginal burning [3, 12]: 3.8%
- Patients with vulvovaginal itching [3, 12]: 3.8%
- rifaximin related vulvovaginal candidiasis during treatment ([3]; any of the treated groups): none of the treated groups showed any case of rifaximin-related vulvovaginal candidiasis; also recorded: No rifaximin related vulvovaginal candidiasis
- adverse event in the clinical study ([3]; patients treated with 25 mg and 100 mg rifaximin in vaginal tablets): did not show any particular adverse event
